Target: T1, AR-VP16 (Homo sapiens, UniProt P10275)
T1 sequence (P10275 560-920 limits assumed): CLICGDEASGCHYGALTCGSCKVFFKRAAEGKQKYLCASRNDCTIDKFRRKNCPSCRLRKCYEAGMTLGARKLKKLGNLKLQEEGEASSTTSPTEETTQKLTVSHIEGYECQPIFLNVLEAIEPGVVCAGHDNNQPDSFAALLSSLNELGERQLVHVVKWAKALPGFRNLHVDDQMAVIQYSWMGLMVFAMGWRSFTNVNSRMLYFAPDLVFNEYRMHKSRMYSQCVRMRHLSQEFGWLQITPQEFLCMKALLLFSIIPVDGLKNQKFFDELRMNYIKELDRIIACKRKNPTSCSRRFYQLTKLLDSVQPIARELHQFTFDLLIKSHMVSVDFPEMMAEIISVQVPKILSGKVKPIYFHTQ
Test: AR-VP16 DNA Binding Assay, antagonist mode (HepG2 cells, 0.1 nM R1881)
Format: cell-based
Method: Cells were transiently transfected using Lipofectin (Life Technologies) according to the manufacturer's protocol. […] Transfected cells were incubated overnight then treated with ligand. […] For antagonist assays, the compounds were serially diluted and 50 μL of compound with RPMI supplemented with charcoal stripped serum plus methyltrienolone (R1881) were added to the cells. The final R1881 concentration used in the antagonist assays was 0.1 nM. Following 48 hour incubation the medium was removed and the cells were lysed in 40 μL of lysis buffer (25 mM Tris Phosphate, 2 mM CDTA, 10% Glycerol, 0.5% Triton X-100, 2 mM DTT).

Row | Structure (SMILES) | IC50
1 | CN1CCC(Oc2ccc(N3C(=S)N(c4cnc(C#N)c(C(F)(F)F)c4)C(=O)C34CCC4)cc2F)CC1 [Compound 193, 5-(5-(3-Fluoro-4-((1-methylpiperidin-4-yl)oxy)phenyl)-8-oxo-6-thioxo-5,7-diazaspiro[3.4]octan-7-yl)-3-(trifluoromethyl)picolinonitrile] | < 1000 nM
2 | N#Cc1ncc(N2C(=O)C3(CCC3)N(c3ccc(OCCC4CCCCC4)c(F)c3)C2=S)cc1C(F)(F)F [Compound 179, 5-(5-(4-(2-Cyclohexylethoxy)-3-fluorophenyl)-8-oxo-6-thioxo-5,7-diazaspiro[3.4]octan-7-yl)-3-(trifluoromethyl)picolinonitrile] | < 1000 nM
3 | COCCNC(=O)c1ccc(N2C(=S)N(c3cnc(C#N)c(C(F)(F)F)c3)C(=O)C23CCC3)cc1F [Compound 248, 4-(7-(6-Cyano-5-(trifluoromethyl)pyridin-3-yl)-8-oxo-6-thioxo-5,7-diazaspiro[3.4]octan-5-yl)-2-fluoro-N-(2-methoxyethyl)benzamide] | > 1000 nM
4 | N#Cc1ncc(N2C(=O)C3(CCC3)N(c3ccc(OCCN4CCNCC4)c(F)c3)C2=S)cc1C(F)(F)F [Compound 174, 5-(5-(3-fluoro-4-(2-(piperazin-1-yl)ethoxy)phenyl)-8-oxo-6-thioxo-5,7-diazaspiro[3.4]octan-7-yl)-3-(trifluoromethyl)picolinonitrile] | < 1000 nM
5 | CNC(=O)c1ccc(N2C(=S)N(c3cnc(C#N)c(C(F)(F)F)c3)C(=O)C2(C)C)cc1F [Compound 43, 4-(3-(6-Cyano-5-(trifluoromethyl)pyridin-3-yl)-5,5-dimethyl-4-oxo-2-thioxoimidazolidin-1-yl)-2-fluoro-N-methylbenzamide] | < 1000 nM
6 | N#Cc1ncc(N2C(=O)C3(CCC3)N(c3cccnc3)C2=S)cc1C(F)(F)F [Compound 19, 5-(8-Oxo-5-(pyridin-3-yl)-6-thioxo-5,7-diazaspiro[3.4]octan-7-yl)-3-(trifluoromethyl)picolinonitrile] | > 1000 nM
7 | N#Cc1ncc(N2C(=O)C3(CCC3)N(c3ccc(OC4CCN(CCO)CC4)cc3)C2=S)cc1C(F)(F)F [Compound 218, 5-(5-(4-((1-(2-hydroxyethyl)piperidin-4-yl)oxy)phenyl)-8-oxo-6-thioxo-5,7-diazaspiro[3.4]octan-7-yl)-3-(trifluoromethyl)picolinonitrile] | < 1000 nM
8 | N#Cc1ncc(N2C(=O)C3(CCC3)N(c3ccc(OCCC(F)(F)C(F)(F)F)c(F)c3)C2=S)cc1C(F)(F)F [Compound 139, 5-(5-(3-Fluoro-4-(3,3,4,4,4-pentafluorobutoxy)phenyl)-8-oxo-6-thioxo-5,7-diazaspiro[3.4]octan-7-yl)-3-(trifluoromethyl)picolinonitrile] | < 1000 nM
9 | CNC(=O)c1ccc(N2C(=S)N(c3cnc(C#N)c(C(F)(F)F)c3)C(=O)C23CCC3)cc1 [Compound 79, 4-(7-(6-Cyano-5-(trifluoromethyl)pyridin-3-yl)-8-oxo-6-thioxo-5,7-diazaspiro[3.4]octan-5-yl)-N-methylbenzamide] | < 1000 nM
10 | CN1CCN(CCOc2ccc(N3C(=S)N(c4ccc(C#N)c5ncccc45)C(=O)C34CCC4)cc2F)CC1 [Compound 173, 5-(5-(3-Fluoro-4-(2-(4-methylpiperazin-1-yl)ethoxy)phenyl)-8-oxo-6-thioxo-5,7-diazaspiro[3.4]octan-7-yl)quinoline-8-carbonitrile] | < 1000 nM
11 | CS(=O)(=O)c1ccc(N2C(=S)N(c3cnc(C#N)c(C(F)(F)F)c3)C(=O)C23CCC3)cc1 [Compound 80, 5-(5-(4-(Methylsulfonyl)phenyl)-8-oxo-6-thioxo-5,7-diazaspiro[3.4]octan-7-yl)-3-(trifluoromethyl)picolinonitrile] | < 1000 nM
12 | CNC(=O)c1ccc(N2C(=S)N(c3cnc(C#N)c(C)c3)C(=O)C23CCC3)cc1C(F)(F)F [Compound 109, 4-(7-(6-Cyano-5-methylpyridin-3-yl)-8-oxo-6-thioxo-5,7-diazaspiro[3.4]octan-5-yl)-N-methyl-2-(trifluoromethyl)benzamide] | < 1000 nM
13 | COc1ccc(N2C(=S)N(c3cnc(C#N)c(C(F)(F)F)c3)C(=O)C23CCC3)cc1 [Compound 204, 5-(5-(4-Methoxyphenyl)-8-oxo-6-thioxo-5,7-diazaspiro[3.4]octan-7-yl)-3-(trifluoromethyl)picolinonitrile] | < 1000 nM
14 | N#Cc1ncc(N2C(=O)C3(CCC3)N(c3ccc(C(=O)NCCCc4ccccc4)c(F)c3)C2=S)cc1C(F)(F)F [Compound 258, 4-(7-(6-Cyano-5-(trifluoromethyl)pyridin-3-yl)-8-oxo-6-thioxo-5,7-diazaspiro[3.4]octan-5-yl)-2-fluoro-N-(3-phenylpropyl)benzamide] | < 1000 nM
15 | N#Cc1ncc(N2C(=O)C3(CCC3)N(c3ccc(O)cc3F)C2=S)cc1C(F)(F)F [Compound 64, 5-(5-(2-Fluoro-4-hydroxyphenyl)-8-oxo-6-thioxo-5,7-diazaspiro[3.4]octan-7-yl)-3-(trifluoromethyl)picolinonitrile] | < 1000 nM
16 | N#Cc1ncc(N2C(=O)C3(CCC3)N(c3ccc(C(=O)NCc4ccccn4)c(F)c3)C2=S)cc1C(F)(F)F [Compound 264, 4-(7-(6-Cyano-5-(trifluoromethyl)pyridin-3-yl)-8-oxo-6-thioxo-5,7-diazaspiro[3.4]octan-5-yl)-2-fluoro-N-(pyridin-2-ylmethyl)benzamide] | < 1000 nM
17 | N#Cc1ncc(N2C(=O)C3(CCC3)N(c3ccc(C(=O)NCCCN4CCOCC4)c(F)c3)C2=S)cc1C(F)(F)F [Compound 268, 4-(7-(6-Cyano-5-(trifluoromethyl)pyridin-3-yl)-8-oxo-6-thioxo-5,7-diazaspiro[3.4]octan-5-yl)-2-fluoro-N-(3-morpholinopropyl)benzamide] | < 1000 nM
18 | Cc1cccc(N2C(=S)N(c3cnc(C#N)c(C(F)(F)F)c3)C(=O)C23CCC3)c1 [Compound 21, 5-(8-Oxo-6-thioxo-5-(m-tolyl)-5,7-diazaspiro[3.4]octan-7-yl)-3-(trifluoromethyl)picolinonitrile] | < 1000 nM
19 | COCCOc1ccc(N2C(=S)N(c3ccc(C#N)c4ncccc34)C(=O)C23CCC3)cc1F [Compound 171, 5-(5-(3-Fluoro-4-(2-methoxyethoxy)phenyl)-8-oxo-6-thioxo-5,7-diazaspiro[3.4]octan-7-yl)quinoline-8-carbonitrile] | < 1000 nM
20 | Cc1cc(N2C(=O)C3(CCC3)N(c3ccc(OC4CCOCC4)cc3)C2=S)cnc1C#N [Compound 194, 3-Methyl-5-(8-oxo-5-(4-((tetrahydro-2H-pyran-4-yl)oxy)phenyl)-6-thioxo-5,7-diazaspiro[3.4]octan-7-yl)picolinonitrile] | < 1000 nM
21 | N#Cc1ncc(N2C(=O)C3(CCC3)N(c3ccc4[nH]ncc4c3)C2=S)cc1C(F)(F)F [Compound 87, 5-(5-(1H-Indazol-5-yl)-8-oxo-6-thioxo-5,7-diazaspiro[3.4]octan-7-yl)-3-(trifluoromethyl)picolinonitrile] | < 1000 nM
22 | Cc1cc(N2C(=O)C3(CCC3)N(c3ccc(C(=O)Nc4nccs4)c(F)c3)C2=S)cnc1C#N [Compound 301, 4-(7-(6-Cyano-5-methylpyridin-3-yl)-8-oxo-6-thioxo-5,7-diazaspiro[3.4]octan-5-yl)-2-fluoro-N-(thiazol-2-yl)benzamide] | < 1000 nM
23 | N#Cc1ncc(N2C(=O)C3(CCC3)N(c3ccc(-c4ccccc4)cc3)C2=S)cc1C(F)(F)F [Compound 13, 5-(5-([1,1′-Biphenyl]-4-yl)-8-oxo-6-thioxo-5,7-diazaspiro[3.4]octan-7-yl)-3-(trifluoromethyl)picolinonitrile] | < 1000 nM
24 | N#Cc1ncc(N2C(=O)C3(CCC3)N(c3ccc(Oc4cncnc4)cc3)C2=S)cc1C(F)(F)F [Compound 42, 5-(8-Oxo-5-(4-(pyrimidin-5-yloxy)phenyl)-6-thioxo-5,7-diazaspiro[3.4]octan-7-yl)-3-(trifluoromethyl)picolinonitrile] | < 1000 nM
25 | Cc1cncc(-c2ccc(N3C(=S)N(c4cnc(C#N)c(C)c4)C(=O)C34CCC4)cc2)c1 [Compound 98, 3-Methyl-5-(5-(4-(5-methylpyridin-3-yl)phenyl)-8-oxo-6-thioxo-5,7-diazaspiro[3.4]octan-7-yl)picolinonitrile] | < 1000 nM
26 | N#Cc1ncc(N2C(=O)C3(CCC3)N(c3ccc(OCc4cccnc4)c(F)c3)C2=S)cc1C(F)(F)F [Compound 148, 5-(5-(3-Fluoro-4-(pyridin-3-ylmethoxy)phenyl)-8-oxo-6-thioxo-5,7-diazaspiro[3.4]octan-7-yl)-3-(trifluoromethyl)picolinonitrile] | < 1000 nM
27 | Cc1ccccc1CCOc1ccc(N2C(=S)N(c3cnc(C#N)c(C(F)(F)F)c3)C(=O)C23CCC3)cc1F [Compound 137, 5-(5-(3-Fluoro-4-(2-methylphenethoxy)phenyl)-8-oxo-6-thioxo-5,7-diazaspiro[3.4]octan-7-yl)-3-(trifluoromethyl)picolinonitrile] | < 1000 nM
28 | N#Cc1ncc(N2C(=O)C3(CCC3)N(c3ccc(C(=O)NC4CC4)c(F)c3)C2=S)cc1C(F)(F)F [Compound 284, 4-(7-(6-Cyano-5-(trifluoromethyl)pyridin-3-yl)-8-oxo-6-thioxo-5,7-diazaspiro[3.4]octan-5-yl)-N-cyclopropyl-2-fluorobenzamide] | < 1000 nM

Reference: patent publication US9108944B2, “Androgen receptor modulators and uses thereof” (ARAGON PHARMACEUTICALS, INC., priority 2010, dated 2015)
